Assay results: US11980616B2, “Treating liver disease by selectively eliminating senescent cells” (Buck Institute for Research on Aging, priority 2014, dated 2024)

Key:
[1] = test system: senescent foreskin fibroblasts (Sen(IR)HCA2); experiment: Cell count survival assay, irradiation-induced senescent HCA2; assay type: cell-based; conditions: 0, 2.5, 10 μM for 9 days
Description: (§1) Foreskin fibroblast cell lines HCA2 and BJ, lung fibroblast cell line IMR90, and mouse embryonic fibroblasts were seeded in six-well plates and induced to senesce with 10 Gy of ionizing radiation (IR) or a 24 hr treatment with doxorubicin (Doxo). Senescent phenotype was allowed to develop for at least 7 days, at which point a cell count was made to determine the baseline number of cells. Nutlin-3a treatment was then initiated for a period of at least 9 days. Media alone or media with drug as appropriate was refreshed at least every three days. At the end of the assay time period, cells are counted. Each condition was seeded in three plate wells and counted independently. Initial cell count serves as a control to determine the induction of senescence, as compared to the last day count without nutlin treatment. Initial non-senescent cell count serves as a proxy to determine Nutlin-3a toxicity.
(§2) Foreskin fibroblast cell lines HCA2 and BJ, lung fibroblast cell line IMR90, and mouse embryonic fibroblasts were exposed to 10 Gy of ionizing radiation (IR) to induce senescence. […] Percent survival was calculated as [cell count on day 9 of Nutlin-3a treatment/initial cell count on first day of Nutlin-3a treatment].

[2] = test system: senescent lung fibroblasts (Sen(IR)IMR90); experiment: Cell count survival assay, irradiation-induced senescent IMR90; assay type: cell-based, human; conditions: 0, 2.5, 10 μM for 9 days
Description: as §1, §2

[3] = test system: non-senescent foreskin fibroblasts (Non Sen HCA2); experiment: Cell count toxicity assay, non-senescent HCA2; assay type: cell-based; conditions: 0, 2.5, 10 μM, 9 days
Description: as §1
(§3) Non-senescent foreskin fibroblasts (HCA2), lung fibroblasts (IMR90), and mouse embryonic fibroblasts (MEF) were treated with varying concentrations (0, 2.5 μM, and 10 μM) of Nutlin-3a for a period of 9 days to assess Nutlin-3a toxicity. Cell counts were taken at the start (NS start) and end of Nutlin-3a treatment. The difference between counts of cells not treated with Nutlin-3a on day 9 (NS 0) and cell counts determined at day zero (NS start) reflects the cell growth over the indicated time period. […]

[4] = test system: non-senescent mouse embryonic fibroblasts (Non Sen MEFs); experiment: Cell count toxicity assay, non-senescent MEF; assay type: cell-based; conditions: 0, 2.5, 10 μM, 9 days
Description: as §1, §3

[5] = test system: LDLR-/-/3MR double transgenic mice; experiment: Mature atherosclerotic plaques in LDLR-/-/3MR mice, 100 day treatment period; assay type: in vivo, mouse; conditions: vs LDLR-/- control
Description: The impact of clearance of senescent cells on the stability and size of mature atherosclerotic plaques was studied in LDLR^−/−/3MR double transgenic mice. From 10 weeks of age, LDLR^−/−/3MR double transgenic mice (10 weeks) and LDLR^−/− single transgenic mice (control) were fed a high fat diet (Harlan Teklad TD.88137) having 42% calories from fat beginning at Week 0 until Week 12.5, when the mice were switched to normal chow diet. Both groups of mice were treated with ganciclovir from week 12.5 over the next 100 days, with each treatment cycle comprising 5 days of ganciclovir (25 mg/kg intraperitoneally daily) and 14 days off. At the end of the 100 day treatment period, the mice were sacrificed, plasma and tissues were collected, and atherosclerosis was quantitated. Descending aortas were dissected and stained with Sudan IV to visualize the plaque lipids. […] Plaques from ganciclovir-treated LDLR^−/− control and LDLR^−/−/3MR mice (see dashed circled plaques in FIGS. 55A-B, respectively) were harvested and cut into cross-sections and stained with […] the general architecture of the atherosclerotic plaques. “#” indicates fat located on the outside of the aorta (see FIG. 55A). The plaques marked with an “*” and “**” in FIGS. 55A and B, respectively, are shown as stained cross-sections in FIGS. […], respectively. […] The plaque from the control mice has identifiable “lipid pockets” accumulating within. […] Disruption or tear in the cap of a lipid-rich plaque is a trigger for coronary events through exposure of plaque thrombogenic components to platelets and clotting components of the blood. Plaques that grow more rapidly as a result of rapid lipid deposition and have thin fibrin caps are prone to rupture. Slowly growing plaques with mature fibrin caps tend to stabilize and are not prone to rupture. Taken together, these experiments indicate that removal of senescent cells may affect atherosclerotic plaque architecture and have a stabilizing effect.

COc1ccc(C2=N[C@@H](c3ccc(Cl)cc3)[C@@H](c3ccc(Cl)cc3)N2C(=O)N2CCNC(=O)C2)c(OC(C)C)c1 [Nutlin-3a]
Percent survival [1]: reduced cell survival
Percent survival [2]: reduced cell survival
Proliferation (percent growth) [3]: reduces proliferation
Toxicity (cell number vs starting level) [3]: non-toxic
Proliferation (percent growth) [4]: reduces proliferation
Toxicity (cell number vs starting level) [4]: non-toxic

Nc1nc(O)c2ncn(COC(CO)CO)c2n1 [ganciclovir]
Atherosclerotic plaques in descending aorta (Sudan IV staining) ([5]; 25 mg/kg i.p. 5 days on, 14 days off, 100 days): fewer atherosclerotic plaques with less intense staining
% of the aorta covered in plaques (area of Sudan IV staining) ([5]; 100 day treatment): significantly lower
Plaque morphology (cross-sections) ([5]; 100 day treatment): presence of a thick fibrin cap and the absence of lipid pockets
